Data on one compound can be found in patent US20160280641A1, “Method for refining 2-nito-4-methylsulfonyl benzoic acid and intermediate thereof” (priority 2013, published 2016).

This data set is described as follows: Ames test of mesotrione products. Type of data set: cell-based. The note with it: mesotrione products made from the fine 2-nitro-4-methylsulfonyl benzoic acids obtained by different processes. The procedure: The fine 2-nitro-4-methylsulfonyl benzoic acids obtained by different processes are transformed into mesotrione products, and activities thereof are tested in Ames tests, wherein Ames responses are negative.
For orientation: The Ames test detects mutagens through reverse mutation in bacteria.

As for `CS(=O)(=O)c1ccc(C(=O)C2C(=O)CCCC2=O)c([N+](=O)[O-])c1` [mesotrione, 2-(4-methanesulfonyl-2-nitrobenzoyl)-1,3-cyclohexanedione], the Ames responses entry is reported as “negative”.
